Experimental data as given in BindingDB's records for doi:10.1016/j.bmcl.2006.01.057 (Glaxosmithkline, 2006).

Target: Glycogen synthase kinase-3 beta (Homo sapiens, UniProt P49841)
Assay: Kinase Inhibition SPA Assay
Settings: pH 7.2; 22 °C
Experimental: The biochemical activity of compounds was determined by incubation with specific enzyme and substrate in the presence 2.5 uM ATP/ [gamma-33P] ATP. After incubation, the reaction was stopped and the phosphorylated substrate was separated from nonincorporated radioactive ATP using Streptavidin-coated SPA beads (Amersham Pharmacia), counted using TopCount (Packard) to measure substrate-incorporated phosphate.

Sequence of Glycogen synthase kinase-3 beta (P49841 whole entry): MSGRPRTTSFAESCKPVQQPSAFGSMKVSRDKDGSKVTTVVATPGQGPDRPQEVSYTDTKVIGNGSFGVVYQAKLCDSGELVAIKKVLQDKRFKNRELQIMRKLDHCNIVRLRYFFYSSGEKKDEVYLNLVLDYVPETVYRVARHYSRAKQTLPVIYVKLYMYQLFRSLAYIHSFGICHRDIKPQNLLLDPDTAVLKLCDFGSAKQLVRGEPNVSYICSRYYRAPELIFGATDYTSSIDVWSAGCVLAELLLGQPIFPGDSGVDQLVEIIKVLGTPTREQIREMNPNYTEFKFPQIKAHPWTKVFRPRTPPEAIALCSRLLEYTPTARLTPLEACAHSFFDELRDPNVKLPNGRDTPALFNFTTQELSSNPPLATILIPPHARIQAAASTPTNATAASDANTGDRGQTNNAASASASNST

| SMILES | IC50 [nM] |
| --- | --- |
| COc1cccc(-n2cnc3c(N=NCc4ccncc4)ncnc32)c1 [9-(3-methoxyphenyl)-6-[(2E)-2-(pyridin-4-ylmethylidene)hydrazin-1-yl]-9H-purine] | 631 |
| COc1cccc(-c2cn(C)c3c(N=NCc4ccncc4)ncnc23)c1 [4-[(1E)-{2-[7-(3-methoxyphenyl)-5-methyl-5H-pyrrolo[3,2-d]pyrimidin-4-yl]hydrazin-1-ylidene}methyl]pyridine] | 501 |
| COc1cccc(-c2c[nH]c3c(N=NCc4ccncc4)ncnc23)c1 [4-[(1E)-{2-[7-(3-methoxyphenyl)-5H-pyrrolo[3,2-d]pyrimidin-4-yl]hydrazin-1-ylidene}methyl]pyridine] | 5.01 |
| COc1cccc(-n2ncc3c(N=NCc4ccncc4)ncnc32)c1 [4-[(1E)-{2-[1-(3-methoxyphenyl)-1H-pyrazolo[3,4-d]pyrimidin-4-yl]hydrazin-1-ylidene}methyl]pyridine] | 6.3 |
| COc1cccc(-c2n[nH]c3c(N=NCc4ccncc4)ncnc23)c1 [4-[(1E)-{2-[3-(3-methoxyphenyl)-1H-pyrazolo[4,3-d]pyrimidin-7-yl]hydrazin-1-ylidene}methyl]pyridine] | 5.01 |
| COc1cccc(-n2ccc3c(N=NCc4ccncc4)ncnc32)c1 [4-[(1E)-{2-[7-(3-methoxyphenyl)-7H-pyrrolo[2,3-d]pyrimidin-4-yl]hydrazin-1-ylidene}methyl]pyridine] | 31.6 |
